Measured values published in US7063946B2, “Methods, reagents, kits and apparatus for protein function analysis” (Meso Scale Technologies, LLC., priority 2001, dated 2006).

Tests used:
[1] = system: tyrosine kinases reported to be the target of each inhibitor; conditions: read-out: reported IC50 concentration (1× concentration); for the kinase reported to be the target of the inhibitor; cited from earlier work
BTK = biological target: T1, BTK (Homo sapiens, UniProt Q06187); assay: Kinase inhibitor profiling, pEY phosphorylation; assay type: biochemical
T1 construct: specificity data for proteins generated from a library of eighteen full-length clones; host or cells: rabbit reticulocyte lysate, TnT coupled in vitro transcription/translation (cell-free)
Method: (§1) Proteins were produced in an in vitro transcription and translation reaction. […] The unbound components of the reaction containing endogenous kinases were removed by three washes with TT-buffer (25 mM Tris-HCl buffer pH 7.4 and 0.004% Triton), two five minutes washings with high-salt wash buffer (25 mM Tris-HCl buffer pH 7.4, 0.004% Triton, 1M NaCl and 5 mM DTT) and 3 more washes with TT-buffer. To these immobilized and purified proteins a tyrosine kinase substrate, 5 nM pEY (poly Glu-Tyr, Sigma, MO), was added in a 50 μl reaction solution containing 5 mM MgCl2, 5 mM MnCl2, 100 μM ATP, 25 mM Tris-HCl buffer pH 7.4, 0.05 mM Na3VO4, 0.004% TritonX-100, 2 mM DTT and EDTA-free protease inhibitor (Roche Molecular Biochemicals). This mixture was incubated with shaking at room temperature overnight to allow phosphorylation of the pEY substrate by the immobilized kinases. Following this incubation, 45 μl of this mixture was transferred to a streptavidin or avidin-coated NPT IPR plate coated with biotinylated anti-phosphotyrosine antibody (PY20, Zymed labs, CA) followed by incubation for 30 minutes at room temperature to allow the binding of the phosphorylated pEY substrate to the PY20 coated NPT plate. Following this binding step, 50 ng Sulfo-TAG labeled anti-phosphotyrosine in buffer containing 25 mM Tris-HCl buffer pH 7.4, 5 mM MgCl2, 0.05 mM Na3VO4, 0.004% TritonX-100, 2 mM DTT and 0.05% IgG was added followed by incubation at room temperature for 30 mm. The unbound reagents were removed by one time washing with water, and the TAG label was detected in presence of 150 μl IPR assay buffer (0.4 mM Gly-Gly buffer, pH 7.8, 1 mM EDTA, 0.1 M TPA). The ECL signals were measured using an imaging plate reader.
(§2) The unbound components of the translation reaction (including any endogenous kinases) were removed by 3 washes with TT-buffer (25 mM Tris-HCl buffer pH 7.4 and 0.004% Triton), two five minutes washes with high-salt wash buffer (25 mM Tris-HCl buffer pH 7.4, 0.004% Triton, 1M NaCl and 5 mM DTT) and 3 washes with TT-buffer. […] The mixture was incubated at room temperature for 10 mm before starting the kinase reaction by adding 25 μl of 200 μM ATP in buffer A. This mixture was incubated with intermittent shaking at room temperature for 2 hours to overnight to allow (a) phosphorylation of the pEY substrate and (b) autophosphorylation of the immobilized kinases. Autophosphorylation and phosphorylation of the pEY was measured as described in Examples 7 and 8.
(§3) The ECL signal in control wells produced by tyrosine kinases was compared to the wells containing inhibitor compounds.

Kit = biological target: T2, Kit (Mus musculus, UniProt P05532); assay: Kinase inhibitor profiling, pEY phosphorylation; assay type: biochemical
T2 construct: specificity data for proteins generated from a library of eighteen full-length clones; biotin on random lysines (biotin-Lys-tRNA); host or cells: rabbit reticulocyte lysate, coupled transcription/translation (TnT, Promega)
Method: as §1
(§4) Proteins were produced using 100 ng of plasmid DNA Mock (Luciferase, Promega) or tyrosine kinases (Fert2 IMAGE ID # 4485050, FGFR1 IMAGE ID # 4037899, Fgfr2 IMAGE ID # 2654352, Src IMAGE ID # 3156400, BMX IMAGE ID # 3919253, LCK IMAGE ID # 4191610, Epha7 IMAGE ID # 3991628, Ephb4 IMAGE ID # 4013934, Tek IMAGE ID # 3482498, HCK IMAGE ID # 4778819, BTK IMAGE ID # 4478463, CSK IMAGE ID # 4398416, SYK IMAGE ID # 3870426, FGR IMAGE ID # 4419973, PTK2B IMAGE ID # 4339456, FRK(IMAGE ID # 4515877, Kit IMAGE ID # 2644960, Fgfr-4 IMAGE ID # 4239139, NTRK3 IMAGE ID # 4181574, Kdr IMAGE ID # 4238984, Incyte Genomics, CA) and immobilized on SA or avidin coated NPT-IPR plates as described in previous examples. The unbound components of the translation reaction (including any endogenous kinases) were removed by 3 washes with TT-buffer (25 mM Tris-HCl buffer pH 7.4 and 0.004% Triton), two five minutes washes with high-salt wash buffer (25 mM Tris-HCl buffer pH 7.4, 0.004% Triton, 1M NaCl and 5 mM DTT) and 3 washes with TT-buffer. […] The mixture was incubated at room temperature for 10 mm before starting the kinase reaction by adding 25 μl of 200 μM ATP in buffer A. This mixture was incubated with intermittent shaking at room temperature for 2 hours to overnight to allow (a) phosphorylation of the pEY substrate and (b) autophosphorylation of the immobilized kinases. Autophosphorylation and phosphorylation of the pEY was measured as described in Examples 7 and 8.
(§5) The ECL signal in control wells produced by tyrosine kinases was compared to the wells containing inhibitor compounds. The signal produced from Mock was negligible.

EphB4 = biological target: T3, EphB4 (Mus musculus, UniProt P54761); assay: Kinase inhibitor profiling, pEY phosphorylation; assay type: biochemical
T3 construct: specificity data for proteins generated from a library of eighteen full-length clones; host or cells: rabbit reticulocyte lysate, TnT coupled in vitro transcription/translation (cell-free)
T3 sequence (P54761 16-987): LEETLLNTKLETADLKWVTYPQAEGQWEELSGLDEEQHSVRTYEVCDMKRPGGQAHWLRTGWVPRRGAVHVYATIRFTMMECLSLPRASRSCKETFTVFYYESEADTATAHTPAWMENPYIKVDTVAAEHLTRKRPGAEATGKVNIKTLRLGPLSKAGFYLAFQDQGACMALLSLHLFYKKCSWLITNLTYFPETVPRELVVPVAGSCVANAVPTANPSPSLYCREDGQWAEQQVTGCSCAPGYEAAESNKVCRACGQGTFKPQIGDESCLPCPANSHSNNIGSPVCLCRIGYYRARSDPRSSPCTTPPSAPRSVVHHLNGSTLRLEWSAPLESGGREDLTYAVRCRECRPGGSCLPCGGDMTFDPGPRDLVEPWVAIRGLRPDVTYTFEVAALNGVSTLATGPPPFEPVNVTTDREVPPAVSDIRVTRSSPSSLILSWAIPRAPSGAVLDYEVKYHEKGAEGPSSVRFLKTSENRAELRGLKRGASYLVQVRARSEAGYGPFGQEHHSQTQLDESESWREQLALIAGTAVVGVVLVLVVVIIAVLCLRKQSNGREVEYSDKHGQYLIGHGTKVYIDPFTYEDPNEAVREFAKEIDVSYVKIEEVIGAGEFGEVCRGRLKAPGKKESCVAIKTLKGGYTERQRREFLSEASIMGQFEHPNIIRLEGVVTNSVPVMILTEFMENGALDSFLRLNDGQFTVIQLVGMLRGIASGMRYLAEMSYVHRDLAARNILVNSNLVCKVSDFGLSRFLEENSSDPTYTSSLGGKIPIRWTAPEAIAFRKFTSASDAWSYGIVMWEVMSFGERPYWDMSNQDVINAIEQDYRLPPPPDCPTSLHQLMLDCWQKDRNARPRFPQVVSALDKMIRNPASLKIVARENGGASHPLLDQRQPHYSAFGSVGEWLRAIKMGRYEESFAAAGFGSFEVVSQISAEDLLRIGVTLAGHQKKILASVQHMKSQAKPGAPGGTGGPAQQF
Method: as §1, §4, §5

Fgfr4 = biological target: T4, Fgfr4 (Mus musculus, UniProt Q03142); assay: Kinase inhibitor profiling, pEY phosphorylation; assay type: biochemical
T4 construct: specificity data for proteins generated from a library of eighteen full-length clones; biotin on random lysines (biotin-Lys-tRNA); host or cells: rabbit reticulocyte lysate, coupled transcription/translation (TnT, Promega)
Method: as §1, §4, §5

Kdr = biological target: T5, Kdr (Mus musculus, UniProt P35918); assay: Kinase inhibitor profiling, pEY phosphorylation; assay type: biochemical
T5 construct: specificity data for proteins generated from a library of eighteen full-length clones; biotin on random lysines (biotin-Lys-tRNA); host or cells: rabbit reticulocyte lysate, coupled transcription/translation (TnT, Promega)
Method: as §1, §2, §3

T2 sequence (P05532 25-979): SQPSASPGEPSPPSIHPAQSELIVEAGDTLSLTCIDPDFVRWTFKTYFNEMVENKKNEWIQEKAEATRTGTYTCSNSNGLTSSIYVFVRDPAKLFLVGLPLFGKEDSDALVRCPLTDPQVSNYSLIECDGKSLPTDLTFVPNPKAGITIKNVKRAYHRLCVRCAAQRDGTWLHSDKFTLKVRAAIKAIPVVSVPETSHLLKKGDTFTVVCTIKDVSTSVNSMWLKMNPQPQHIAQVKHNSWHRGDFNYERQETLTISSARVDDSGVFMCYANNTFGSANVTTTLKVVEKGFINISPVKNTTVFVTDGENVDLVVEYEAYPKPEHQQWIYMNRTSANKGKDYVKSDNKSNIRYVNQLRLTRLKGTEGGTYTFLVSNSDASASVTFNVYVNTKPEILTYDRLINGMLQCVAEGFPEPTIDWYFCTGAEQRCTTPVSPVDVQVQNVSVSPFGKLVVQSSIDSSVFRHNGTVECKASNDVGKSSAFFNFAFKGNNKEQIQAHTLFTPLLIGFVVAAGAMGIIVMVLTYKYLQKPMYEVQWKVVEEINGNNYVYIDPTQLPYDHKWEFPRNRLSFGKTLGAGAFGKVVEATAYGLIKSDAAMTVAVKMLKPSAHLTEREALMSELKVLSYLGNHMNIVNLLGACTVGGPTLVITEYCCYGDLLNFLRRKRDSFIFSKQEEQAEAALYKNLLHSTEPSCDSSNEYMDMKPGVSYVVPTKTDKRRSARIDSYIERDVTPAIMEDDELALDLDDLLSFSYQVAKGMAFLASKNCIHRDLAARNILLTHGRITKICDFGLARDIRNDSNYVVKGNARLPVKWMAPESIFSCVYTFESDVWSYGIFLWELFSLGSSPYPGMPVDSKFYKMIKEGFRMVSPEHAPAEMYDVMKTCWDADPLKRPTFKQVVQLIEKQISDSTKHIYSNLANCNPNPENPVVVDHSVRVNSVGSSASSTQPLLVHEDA
T1 sequence (Q06187 whole entry): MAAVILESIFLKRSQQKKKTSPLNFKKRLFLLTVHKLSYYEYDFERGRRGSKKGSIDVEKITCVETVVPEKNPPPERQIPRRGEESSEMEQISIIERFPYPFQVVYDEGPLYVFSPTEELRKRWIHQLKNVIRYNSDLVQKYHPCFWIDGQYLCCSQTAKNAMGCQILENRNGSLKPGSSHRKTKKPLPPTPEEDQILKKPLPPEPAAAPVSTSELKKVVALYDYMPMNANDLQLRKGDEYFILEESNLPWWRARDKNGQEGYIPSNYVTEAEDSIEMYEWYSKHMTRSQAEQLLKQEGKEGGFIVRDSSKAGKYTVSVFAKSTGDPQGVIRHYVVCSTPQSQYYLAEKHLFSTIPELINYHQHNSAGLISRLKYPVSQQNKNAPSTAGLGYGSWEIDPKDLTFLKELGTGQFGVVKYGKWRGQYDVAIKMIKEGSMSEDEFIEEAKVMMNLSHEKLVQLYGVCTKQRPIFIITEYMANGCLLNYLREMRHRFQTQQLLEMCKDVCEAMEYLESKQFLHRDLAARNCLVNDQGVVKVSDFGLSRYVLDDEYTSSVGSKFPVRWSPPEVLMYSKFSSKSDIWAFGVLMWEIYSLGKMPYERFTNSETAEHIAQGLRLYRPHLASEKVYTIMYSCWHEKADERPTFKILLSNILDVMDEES
T5 sequence (P35918 20-1345): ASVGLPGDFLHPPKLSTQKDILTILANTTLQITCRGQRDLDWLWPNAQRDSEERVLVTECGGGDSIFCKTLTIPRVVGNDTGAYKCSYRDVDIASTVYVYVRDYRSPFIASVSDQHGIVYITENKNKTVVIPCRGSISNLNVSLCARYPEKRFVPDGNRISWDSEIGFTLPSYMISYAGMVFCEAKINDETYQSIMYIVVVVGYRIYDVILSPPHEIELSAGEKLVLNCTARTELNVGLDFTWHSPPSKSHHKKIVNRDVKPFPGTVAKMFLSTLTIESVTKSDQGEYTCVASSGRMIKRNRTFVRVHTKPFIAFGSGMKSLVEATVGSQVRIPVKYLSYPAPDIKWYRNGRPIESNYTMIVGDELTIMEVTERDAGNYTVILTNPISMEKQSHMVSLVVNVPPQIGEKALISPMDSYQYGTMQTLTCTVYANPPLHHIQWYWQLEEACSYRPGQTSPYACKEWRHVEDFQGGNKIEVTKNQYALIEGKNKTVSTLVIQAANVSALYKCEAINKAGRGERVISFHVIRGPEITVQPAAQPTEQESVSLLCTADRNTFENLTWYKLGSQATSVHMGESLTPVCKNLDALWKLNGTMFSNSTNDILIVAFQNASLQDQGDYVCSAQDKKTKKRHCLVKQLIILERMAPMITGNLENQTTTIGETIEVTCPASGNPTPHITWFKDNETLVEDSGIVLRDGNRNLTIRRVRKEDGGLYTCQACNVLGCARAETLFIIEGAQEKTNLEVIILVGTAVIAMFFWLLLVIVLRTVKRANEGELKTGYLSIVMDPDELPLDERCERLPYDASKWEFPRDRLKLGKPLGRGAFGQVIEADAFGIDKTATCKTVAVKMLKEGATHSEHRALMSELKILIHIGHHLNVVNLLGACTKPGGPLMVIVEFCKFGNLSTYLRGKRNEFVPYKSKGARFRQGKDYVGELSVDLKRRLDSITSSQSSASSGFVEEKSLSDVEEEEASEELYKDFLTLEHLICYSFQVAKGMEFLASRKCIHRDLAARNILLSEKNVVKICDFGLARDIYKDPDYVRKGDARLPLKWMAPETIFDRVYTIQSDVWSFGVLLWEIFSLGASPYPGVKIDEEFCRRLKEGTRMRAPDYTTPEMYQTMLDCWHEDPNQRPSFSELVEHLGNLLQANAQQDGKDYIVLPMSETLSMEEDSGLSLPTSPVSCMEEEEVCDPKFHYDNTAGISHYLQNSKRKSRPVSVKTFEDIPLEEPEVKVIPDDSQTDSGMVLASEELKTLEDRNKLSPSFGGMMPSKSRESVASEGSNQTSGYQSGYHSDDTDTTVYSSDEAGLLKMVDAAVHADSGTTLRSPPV
T4 sequence (Q03142 17-799): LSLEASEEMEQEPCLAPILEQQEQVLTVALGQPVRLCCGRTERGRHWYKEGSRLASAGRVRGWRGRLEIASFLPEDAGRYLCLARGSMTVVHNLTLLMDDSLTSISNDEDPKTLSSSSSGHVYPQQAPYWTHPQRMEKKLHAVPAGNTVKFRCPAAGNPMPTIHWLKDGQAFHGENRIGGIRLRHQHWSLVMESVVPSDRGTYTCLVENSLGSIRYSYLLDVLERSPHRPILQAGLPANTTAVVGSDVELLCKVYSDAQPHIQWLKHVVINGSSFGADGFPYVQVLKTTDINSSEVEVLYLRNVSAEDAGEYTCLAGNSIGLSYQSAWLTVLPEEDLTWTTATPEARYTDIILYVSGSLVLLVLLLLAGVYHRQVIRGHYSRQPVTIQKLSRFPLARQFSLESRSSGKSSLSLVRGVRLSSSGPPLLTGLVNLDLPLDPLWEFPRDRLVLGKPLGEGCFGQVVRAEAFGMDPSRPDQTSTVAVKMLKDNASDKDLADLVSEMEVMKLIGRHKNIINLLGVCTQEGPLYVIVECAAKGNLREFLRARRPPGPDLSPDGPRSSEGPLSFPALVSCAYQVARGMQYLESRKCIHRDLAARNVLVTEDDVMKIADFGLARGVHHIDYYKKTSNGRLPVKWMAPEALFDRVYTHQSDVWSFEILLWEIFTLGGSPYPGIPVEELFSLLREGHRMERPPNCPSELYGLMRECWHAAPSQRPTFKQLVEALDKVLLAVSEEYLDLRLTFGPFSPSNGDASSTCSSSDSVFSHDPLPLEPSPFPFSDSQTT

| SMILES | IC50 [1] [nM] | Inhibition specificity towards pEY phosphorylation at 10X IC50, BTK (BTK) | Inhibition specificity towards pEY phosphorylation at 10X IC50, Kit (Kit) | Inhibition specificity towards pEY phosphorylation at 10X IC50, EphB4 (EphB4) | Inhibition specificity towards pEY phosphorylation at 10X IC50, Fgfr4 (Fgfr4) | Inhibition specificity towards pEY phosphorylation at 10X IC50, Kdr (Kdr) |
| --- | --- | --- | --- | --- | --- | --- |
| CC(C)(C)c1cc(/C=C(\C#N)C(N)=S)cc(C(C)(C)C)c1O [AG879] | 10000 | L (low inhibition (“L”=between 50–75% of the activity remaining)) | – | – | – | – |
| CC(C)(C)c1cc(C=C(C#N)C#N)cc(C(C)(C)C)c1O [AG-17] | 500 | – | L (low inhibition (“L”=between 50–75% of the activity remaining)) | – | – | – |
| N#C/C(=C/c1ccc(O)c(O)c1)C(=O)NCc1ccccc1 [AG-490] | 100 | L (low inhibition (“L”=between 50–75% of the activity remaining)) | – | – | – | – |
| COc1cc2ncc(-c3ccccc3)nc2cc1OC [AG-1296] | 1000 | – | M (medium inhibition (“M”=between 25 to 50% of the activity remaining)) | L (low inhibition (“L”=between 50–75% of the activity remaining)) | – | – |
| O=c1c(-c2ccc(O)cc2)coc2cc(O)cc(O)c12 [Genistein] | – | – | M (medium inhibition (“M”=between 25 to 50% of the activity remaining)) | L (low inhibition (“L”=between 50–75% of the activity remaining)) | – | – |
| C/C(O)=C(\C#N)C(=O)Nc1cc(Br)ccc1Br [LFM-A13] | 17200 | – | M (medium inhibition (“M”=between 25 to 50% of the activity remaining)) | – | M (medium inhibition (“M”=between 25 to 50% of the activity remaining)) | L (low inhibition (“L”=between 50–75% of the activity remaining)) |
| O=C(O)c1cc(N(Cc2ccccc2O)Cc2cc(O)ccc2O)ccc1O [Lavendustin A] | 11 | – | L (low inhibition (“L”=between 50–75% of the activity remaining)) | – | – | – |
